According to PubChem BioAssay AID248 (DTP/NCI, 2004):
Where “and” joins values, the source holds several entries; their conditions need not be identical. Equal values may be shown once. Toxic doses and inconclusive results are not listed.

Tested on: L1210 leukemia ip in BDF1 mice, survival T/C
Assay: NCI In Vivo Anticancer Drug Screen. Data for tumor model L1210 Leukemia (intraperitoneal) in B6D2F1 (BDF1) mice
Conditions: endpoint: mean survival time, higher = longer survival
Procedure, shortened: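 Value reflects the ratio of survival in compound-treated mice to survival in vehicle-treated controls, with both groups carrying the same transplanted tumor.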

[1] = dose: 100.0 mg/kg/injection, schedule: Q01DX009 (ip), vehicle: Klucel (hydroxypropylcellulose) (HPC)
[2] = dose: 200.0 mg/kg/injection, schedule: Q01DX009 (ip), vehicle: Klucel (hydroxypropylcellulose) (HPC)
[3] = dose: 100.0 mg/kg/injection, schedule: Q04DX002 (ip), vehicle: saline
[4] = dose: 75.0 mg/kg/injection, schedule: Q01DX001 (ip), vehicle: saline
[5] = dose: 150.0 mg/kg/injection, schedule: Q01DX001 (ip), vehicle: saline
[6] = dose: 300.0 mg/kg/injection, schedule: Q01DX001 (ip), vehicle: saline
[7] = dose: 100.0 mg/kg/injection, schedule: Q01DX001 (ip), vehicle: saline
[8] = dose: 150.0 mg/kg/injection, schedule: Q01DX001 (ip), vehicle: carboxymethylcellulose (CMC)
[9] = dose: 200.0 mg/kg/injection, schedule: Q01DX001 (ip), vehicle: saline
[10] = dose: 100.0 mg/kg/injection, schedule: Q01DX001 (ip), vehicle: carboxymethylcellulose (CMC)
[11] = dose: 200.0 mg/kg/injection, schedule: Q01DX001 (ip), vehicle: carboxymethylcellulose (CMC)
[12] = dose: 100.0 mg/kg/injection, schedule: Q04DX003 (ip), vehicle: saline with Tween-80
[13] = dose: 200.0 mg/kg/injection, schedule: Q04DX003 (ip), vehicle: saline with Tween-80
[14] = dose: 400.0 mg/kg/injection, schedule: Q04DX003 (ip), vehicle: saline with Tween-80
[15] = dose: 100.0 mg/kg/injection, schedule: Q01DX009 (ip), vehicle: saline
[16] = dose: 100.0 mg/kg/injection, schedule: Q04DX003 (ip), vehicle: saline
[17] = dose: 200.0 mg/kg/injection, schedule: Q01DX009 (ip), vehicle: saline
[18] = dose: 200.0 mg/kg/injection, schedule: Q04DX003 (ip), vehicle: saline
[19] = dose: 400.0 mg/kg/injection, schedule: Q01DX009 (ip), vehicle: saline
[20] = dose: 400.0 mg/kg/injection, schedule: Q04DX003 (ip), vehicle: saline

## Cc1ccc(NC(=O)c2c(Br)c(Br)c(Br)c(Br)c2C(=O)O)cc1Cl
[1]
  T/C: 100 % of control
dose: 100.0 mg/kg/injection, schedule: Q04DX002 (ip), vehicle: Klucel (hydroxypropylcellulose) (HPC)
  T/C: 96 % of control
[2]
  T/C: 96 % of control
dose: 200.0 mg/kg/injection, schedule: Q04DX002 (ip), vehicle: Klucel (hydroxypropylcellulose) (HPC)
  T/C: 110 % of control
dose: 400.0 mg/kg/injection, schedule: Q04DX002 (ip), vehicle: Klucel (hydroxypropylcellulose) (HPC)
  T/C: 102 % of control

## COCCc1nnn(C)n1
[3]
  T/C: 97 % of control
dose: 200.0 mg/kg/injection, schedule: Q04DX002 (ip), vehicle: saline
  T/C: 97 % of control
dose: 400.0 mg/kg/injection, schedule: Q04DX002 (ip), vehicle: saline
  T/C: 108 % of control

## Nc1ccc(SCC(=O)O)cc1
[4]
  T/C: 94 % of control
[5]
  T/C: 100 % of control
[6]
  T/C: 92 % of control

## O=NN(CCCl)C(=O)N[C@@H]1CCCC[C@H]1NC(=O)N(CCCl)N=O
dose: 25.0 mg/kg/injection, schedule: Q01DX001 (ip), vehicle: carboxymethylcellulose (CMC)
  T/C: 180 % of control
dose: 37.5 mg/kg/injection, schedule: Q01DX001 (ip), vehicle: carboxymethylcellulose (CMC)
  T/C: 165 % of control
dose: 50.0 mg/kg/injection, schedule: Q01DX001 (ip), vehicle: carboxymethylcellulose (CMC)
  T/C: 215 % of control
dose: 75.0 mg/kg/injection, schedule: Q01DX001 (ip), vehicle: carboxymethylcellulose (CMC)
  T/C: 260 % of control
[7]
  T/C: 233 % of control
[8]
  T/C: 308 % of control
[9]
  T/C: 106 % of control
[6]
  T/C: 89 % of control

## CC1(C)CN1c1nc(N2CC2(C)C)nc(N2CC2(C)C)n1
dose: 44.0 mg/kg/injection, schedule: Q01DX001 (ip), vehicle: carboxymethylcellulose (CMC)
  T/C: 106 % of control and 108 % of control
dose: 66.0 mg/kg/injection, schedule: Q01DX001 (ip), vehicle: carboxymethylcellulose (CMC)
  T/C: 106 % of control and 108 % of control
[10]
  T/C: 113 % of control and 120 % of control
[8]
  T/C: 116 % of control and 118 % of control
[11]
  T/C: 118 % of control

## O=[N+]([O-])c1ccc(SNc2ccc(NSc3ccc([N+](=O)[O-])cc3)cc2)cc1
dose: 25.0 mg/kg/injection, schedule: Q01DX001 (ip), vehicle: saline with Tween-80
  T/C: 96 % of control
dose: 50.0 mg/kg/injection, schedule: Q01DX001 (ip), vehicle: saline with Tween-80
  T/C: 100 % of control

## CCOC(=O)c1ccc2c3c(ccc(C(=O)OCC)c13)C=C2
[7]
  T/C: 88 % of control
[9]
  T/C: 96 % of control
dose: 400.0 mg/kg/injection, schedule: Q01DX001 (ip), vehicle: saline
  T/C: 100 % of control

## O=C(/C=C/C(=O)N1CCOCC1)N1CCOCC1
[12]
  T/C: 100 % of control
[13]
  T/C: 104 % of control
[14]
  T/C: 116 % of control

## CC(=O)Oc1ccc(OC(C)=O)c2c1CC(C)=C(C)C2
[15]
  T/C: 95 % of control
[16]
  T/C: 97 % of control
[17]
  T/C: 90 % of control
[18]
  T/C: 98 % of control
[19]
  T/C: 92 % of control
[20]
  T/C: 97 % of control

## CC12CC3CC(C)(C1)CC(OCCN)(C3)C2
dose: 25.0 mg/kg/injection, schedule: Q01DX009 (ip), vehicle: saline
  T/C: 94 % of control
dose: 25.0 mg/kg/injection, schedule: Q04DX002 (ip), vehicle: saline
  T/C: 98 % of control
dose: 50.0 mg/kg/injection, schedule: Q01DX009 (ip), vehicle: saline
  T/C: 108 % of control
dose: 50.0 mg/kg/injection, schedule: Q04DX002 (ip), vehicle: saline
  T/C: 98 % of control
[15]
  T/C: 92 % of control
[3]
  T/C: 110 % of control and 117 % of control

## COc1ccc(C(=O)N(N)C2CCCCC2)cc1
[12]
  T/C: 93 % of control
[13]
  T/C: 102 % of control

## S=c1cccn[nH]1
dose: 12.5 mg/kg/injection, schedule: Q01DX009 (ip), vehicle: other
  T/C: 459 % of control
dose: 25.0 mg/kg/injection, schedule: Q01DX009 (ip), vehicle: other
  T/C: 459 % of control
dose: 50.0 mg/kg/injection, schedule: Q01DX009 (ip), vehicle: other
  T/C: 406 % of control
dose: 59.0 mg/kg/injection, schedule: Q01DX009 (ip), vehicle: other
  T/C: 93 % of control and 101 % of control
dose: 89.0 mg/kg/injection, schedule: Q01DX009 (ip), vehicle: other
  T/C: 96 % of control and 99 % of control
dose: 100.0 mg/kg/injection, schedule: Q01DX009 (ip), vehicle: other
  T/C: 341 % of control
dose: 133.0 mg/kg/injection, schedule: Q01DX009 (ip), vehicle: other
  T/C: 94 % of control and 100 % of control
dose: 300.0 mg/kg/injection, schedule: Q01DX009 (ip), vehicle: other
  T/C: 96 % of control and 90 % of control

## CC1(C)CCCC2(C)C3CCC(C31)C2OC(=O)c1ccc([N+](=O)[O-])cc1 (stereo unspecified)
dose: 100.0 mg/kg/injection, schedule: Q01DX001 (ip), vehicle: Klucel (hydroxypropylcellulose) (HPC)
  T/C: 101 % of control
dose: 200.0 mg/kg/injection, schedule: Q01DX001 (ip), vehicle: Klucel (hydroxypropylcellulose) (HPC)
  T/C: 98 % of control
dose: 400.0 mg/kg/injection, schedule: Q01DX001 (ip), vehicle: Klucel (hydroxypropylcellulose) (HPC)
  T/C: 93 % of control

## NS(=O)(=O)c1ccc(N=Cc2ccc3c(c2)OCO3)cc1
[1]
  T/C: 94 % of control
[2]
  T/C: 92 % of control
dose: 400.0 mg/kg/injection, schedule: Q01DX009 (ip), vehicle: Klucel (hydroxypropylcellulose) (HPC)
  T/C: 97 % of control

## Cc1ccc(Nc2n[nH]c(=S)s2)c(C)c1
dose: 100.0 mg/kg/injection, schedule: Q04DX002 (ip), vehicle: gum acacia
  T/C: 96 % of control
dose: 200.0 mg/kg/injection, schedule: Q04DX002 (ip), vehicle: gum acacia
  T/C: 96 % of control
dose: 400.0 mg/kg/injection, schedule: Q04DX002 (ip), vehicle: gum acacia
  T/C: 111 % of control

## COc1ccc(OC)c(NC(=O)Nc2cccc(C(F)(F)F)c2)c1
dose: 25.0 mg/kg/injection, schedule: Q01DX009 (ip), vehicle: carboxymethylcellulose (CMC)
  T/C: 97 % of control and 87 % of control
dose: 50.0 mg/kg/injection, schedule: Q01DX009 (ip), vehicle: carboxymethylcellulose (CMC)
  T/C: 112 % of control and 88 % of control
[10]
  T/C: 103 % of control and 107 % of control
dose: 100.0 mg/kg/injection, schedule: Q01DX009 (ip), vehicle: carboxymethylcellulose (CMC)
  T/C: 87 % of control
dose: 100.0 mg/kg/injection, schedule: Q04DX002 (ip), vehicle: carboxymethylcellulose (CMC)
  T/C: 95 % of control and 89 % of control
dose: 100.0 mg/kg/injection, schedule: Q04DX003 (ip), vehicle: carboxymethylcellulose (CMC)
  T/C: 103 % of control and 87 % of control
[11]
  T/C: 96 % of control and 89 % of control
dose: 200.0 mg/kg/injection, schedule: Q04DX002 (ip), vehicle: carboxymethylcellulose (CMC)
  T/C: 92 % of control and 99 % of control
dose: 200.0 mg/kg/injection, schedule: Q04DX003 (ip), vehicle: carboxymethylcellulose (CMC)
  T/C: 93 % of control and 87 % of control
dose: 400.0 mg/kg/injection, schedule: Q01DX001 (ip), vehicle: carboxymethylcellulose (CMC)
  T/C: 94 % of control and 100 % of control
dose: 400.0 mg/kg/injection, schedule: Q01DX009 (ip), vehicle: carboxymethylcellulose (CMC)
  T/C: 86 % of control
dose: 400.0 mg/kg/injection, schedule: Q04DX002 (ip), vehicle: carboxymethylcellulose (CMC)
  T/C: 86 % of control
dose: 400.0 mg/kg/injection, schedule: Q04DX003 (ip), vehicle: carboxymethylcellulose (CMC)
  T/C: 90 % of control

## CCCC/C(=N\OP(=O)(OCC)OCC)c1ccccc1
[4]
  T/C: 101 % of control
[5]
  T/C: 107 % of control
[6]
  T/C: 91 % of control

## O=[N+]([O-])c1ccc2[nH]c3c(c2c1)CSCC3
dose: 100.0 mg/kg/injection, schedule: Q01DX009 (ip), vehicle: saline with Tween-80
  T/C: 91 % of control
[12]
  T/C: 100 % of control
dose: 200.0 mg/kg/injection, schedule: Q01DX009 (ip), vehicle: saline with Tween-80
  T/C: 88 % of control
[13]
  T/C: 100 % of control
dose: 400.0 mg/kg/injection, schedule: Q01DX009 (ip), vehicle: saline with Tween-80
  T/C: 94 % of control
[14]
  T/C: 95 % of control

## CCCOCC(O)CO (stereo unspecified)
[15]
  T/C: 100 % of control
[16]
  T/C: 107 % of control
[17]
  T/C: 98 % of control
[18]
  T/C: 102 % of control
[19]
  T/C: 102 % of control
[20]
  T/C: 110 % of control
